Test results published in PMC3996151, “Safety and pharmacological characterization of the molecular tweezer CLR01 – a broad-spectrum inhibitor of amyloid proteins’ toxicity” (BMC Pharmacology & Toxicology, 2014).
Marks after values point to notes of the source that are not given here.

Tests used:
[1] = set-up: method as in PMID 23183235; settings: mouse liver microsomes; cited from earlier work
[2] = system: α-synuclein (α-syn); set-up: method as in PMID 22373667; settings: up to 10 μM in the water environment; cited from earlier work
[3] = system: C57BL/6J mice; assay: Acute toxicity: single IP injection, behaviour, histopathology and serum chemistry after 24 h; type: in vivo, mouse; settings: for Alanine aminotransferase / Albumin / Alkaline phosphatase / Aspartate aminotransferase / Blood urea nitrogen / Cholesterol / Creatinine / Glucose / Lactate dehydrogenase / Total bilirubin / Total protein: serum, acute, mean
Experimental: For acute-toxicity studies, 2-m old C57BL/6J mice were administered saline-vehicle, 10 mg/kg, or 100 mg/kg CLR01 by a single intraperitoneal (IP) injection. The mice were sacrificed 24-h after the injection. For chronic toxicity studies, 2-m old C57BL/6J mice were administered saline-vehicle, 3 mg/kg, or 10 mg/kg CLR01 by daily IP injection for 30 days. Acute-study mice were visually monitored for 1 h after injection and then every 50 min for 10 min over the first 6 h of the experiment for changes in activity and behavior. The mice also were monitored every 110 min for 10 min during the last 6 h of the experiment until they were sacrificed. Chronic-study mice were monitored for 1 h after injection and then 3 times a day for 10 min each, every day of the first week. During that week there were no appreciable changes in the behavior, appearance, or weight of the mice. Therefore, monitoring was reduced to twice a day during the remainder of the experiment. On all occasions, the mice were monitored for any signs of severe toxicity, including bruising or bleeding, pale mucous membranes or extremities, diarrhea, dehydration, neurological signs, such as difficulty ambulating or paralysis, tachypnea or dyspnea, or abdominal distension.
Following the treatment, mice were anesthetized with pentobarbital and blood was collected by cardiac puncture and placed in tubes containing a clot activator for serum separation (Capiject T-MG tubes, Terumo Medical Products, Somerset, NJ). Then, the lungs were filled through the trachea with 4% paraformaldehyde to prevent collapse, and tissues (brain, heart-lung, liver, kidney, and spleen) were collected and fixed for 72 h in 4% paraformaldehyde at a ratio of ~1:10 tissue:fixative (v/v). Tissues then were transferred into a 70%-ethanol solution and transferred to the UCLA Mouse Pathology Core for paraffin embedding, sectioning, and tissue histopathology analysis. Serum was analyzed by the UCLA Division of Laboratory Animal Medicine (DLAM) Animal Serology & Molecular Diagnostic Laboratory for an 11-panel serum chemical analysis using the ACE Alera Clinical Chemistry system (Alfa Wassermann Diagnostic Technologies, West Caldwell, NJ). The panel included: alanine aminotransferase, aspartate aminotransferase, albumin, alkaline phosphatase, creatinine, total bilirubin, lactate dehydrogenase, blood urea nitrogen, cholesterol, total protein, and glucose.
If CLR01 indeed operates by a process-specific mechanism and remodels the abnormal aggregation of amyloidogenic proteins at substantially lower concentrations than concentrations that would perturb normal physiological processes, one would expect the compound to have a high therapeutic index. To calculate the therapeutic index, a lethal dose must be reached. […] The next rational step was to test the safety margin of CLR01 in vivo. Based on the in vitro and cell culture data, we expected that 100 mg/kg would be lethal to mice and therefore used it as the highest dose in our safety-evaluation experiments. We assessed the safety of CLR01 in 2-m old, male, WT mice either 24 h following a single IP injection of 10 or 100 mg/kg (acute administration) or after daily IP injection of 3 or 10 mg/kg for 30 days (chronic administration). Following euthanasia, serum was collected for chemical analysis and tissues were harvested for histopathology evaluation.

[4] = molecular target: T1, calf intestinal alkaline phosphatase (Bos taurus, UniProt P19111); assay: In vitro dephosphorylation by alkaline phosphatase (inorganic phosphate release); type: in vitro ADME; settings: up to 100 nmol CLR01, 60 min at 60°C, detection limit 5 nmol
T1 construct: purchased Promega, Madison, Wisconsin
Experimental: Potential dephosphorylation of CLR01 was analyzed by incubating 100 nmol CLR01 with 0.08 units of alkaline phosphatase (ALP; calf intestinal alkaline phosphatase, Promega, Madison, Wisconsin) for 60 min at 60°C. One enzymatic unit is defined as the amount of enzyme required for catalyzing the hydrolysis of 1 μmol of p-nitrophenylphosphate per minute. p-Nitrophenylphosphate disodium salt at 5–50 nmol (Fisher, Waltham, Massachusetts) was used for generation of a standard curve. The amount of inorganic phosphate generated was measured spectrophotometrically using an EnzChek Phosphate Assay kit (Life Technologies, Carlsbad, California) according to the manufacturer’s instructions on a DU-640 spectrophotometer (Beckman Coulter, Brea, California) at λ = 360 nm. Baseline values were subtracted from readings and compared to the standard curve resulting from serial ALP reactions to calculate the amount of inorganic phosphate. Similarly, potential dephosphorylation of CLR01 by brain homogenates was measured. For these experiments, one brain hemisphere was homogenized by sonication in the presence of cOmplete protease-inhibitor cocktail (Roche, Penzberg, Germany). Protein concentration was measured using a BCA Protein Assay Kit (Pierce, Rockford, Illinois). […]

[5] = molecular target: Poly [ADP-ribose] polymerase 1 (PARP-1); set-up: method as in T. Schrader, unpublished results; settings: enzyme concentration of 2.3 nM; ref T. Schrader, unpublished results; cited from earlier work
[6] = Blood-brain barrier permeability with 3H-CLR01 IV (scintillation counting of blood and brain); type: in vivo, mouse; settings: 40-μg/kg/day dose, 15-m old 3×Tg mice, estimate
[7] = 2-m old WT mice, 24 h after single IP dose 10 mg/kg, N = 8
[8] = 2-m old WT mice, 24 h after single IP dose 100 mg/kg, N = 8
[9] = 2-m old WT mice, 24 h after single IP dose 100 mg/kg, N = 8, p < 0.001 vs control
[10] = 2-m old WT mice, 24 h after single IP dose 100 mg/kg, N = 8, p < 0.01 vs control

T1 sequence (P19111 20-533): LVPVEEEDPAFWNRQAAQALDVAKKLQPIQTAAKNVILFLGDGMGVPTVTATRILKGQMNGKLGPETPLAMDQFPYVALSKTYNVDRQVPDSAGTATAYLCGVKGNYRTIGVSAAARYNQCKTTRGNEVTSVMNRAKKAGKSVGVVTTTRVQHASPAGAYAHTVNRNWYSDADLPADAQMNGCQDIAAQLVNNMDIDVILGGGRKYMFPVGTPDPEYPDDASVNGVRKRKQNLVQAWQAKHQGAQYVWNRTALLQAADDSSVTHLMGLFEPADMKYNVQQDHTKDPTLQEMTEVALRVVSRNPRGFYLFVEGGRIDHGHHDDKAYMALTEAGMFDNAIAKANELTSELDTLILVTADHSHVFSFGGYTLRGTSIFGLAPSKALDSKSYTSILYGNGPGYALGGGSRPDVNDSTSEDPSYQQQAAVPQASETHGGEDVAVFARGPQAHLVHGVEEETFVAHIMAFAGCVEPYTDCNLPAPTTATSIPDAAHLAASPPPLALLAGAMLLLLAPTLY

## O=P(O)(O)Oc1c2c(c(OP(=O)(O)O)c3c1C1CC3c3cc4c(cc31)C1CC4c3ccccc31)C1CC2c2cc3c(cc21)C1CC3c2ccccc21 [CLR01]
[1]
  Stability: 100%
[2]
  Effect in zebrafish model of α-syn toxicity: prevented deformation and mortality
[3]; 100 mg/kg single dose
  Single non-lethal dose relative to the efficacious dose: 2,500 fold
[3]; [7]
  Alanine aminotransferase: 36.1 U/L
  Albumin: 2.3 g/dL
  Alkaline phosphatase: 126.1 U/L
  Aspartate aminotransferase: 89.5 U/L
  Blood urea nitrogen: 19.8 mg/dL
  Cholesterol: 91.5 mg/dL
  Creatinine: 0.2 mg/dL
  Glucose: 297.8 mg/dL
  Lactate dehydrogenase: 325.2 U/L
  Total bilirubin: 0.2 mg/dL
  Total protein: 3.7 g/dL
[3]; [8]
  Albumin: 1.9 g/dL
  Alkaline phosphatase: 101.5 U/L
  Blood urea nitrogen: 22.0 mg/dL
  Creatinine: 0.4 mg/dL
  Total bilirubin: 0.3 mg/dL
  Total protein: 3.6 g/dL
[3]; [9]
  Alanine aminotransferase: 1282.9*** U/L
  Glucose: 104.3*** mg/dL
  Lactate dehydrogenase: 2439.8*** U/L
[3]; [10]
  Aspartate aminotransferase: 565.3** U/L
  Cholesterol: 20.8** mg/dL
[3]; single IP 10 mg/kg
  Behavior (levels and type of activity and grooming): behaved indistinguishably from control mice
[3]; single IP 10 mg/kg, 24 h
  Incidence of liver degeneration and necrosis: one of eight
[3]; single IP 100 mg/kg
  Duration of decreased activity and droopy eyelids in some mice: up to 2 h
  Duration of signs of distress following the injection: ~ 30 min
[3]; single IP 100 mg/kg, 2-m old WT mice
  Behavior after injection: obvious signs of distress
[3]; single IP 100 mg/kg, 24 h
  Survival: all the mice in the high-dose group survived
[3]; single IP 100 mg/kg, 24 h, all mice, centrilobular and midlobular regions
  Liver histopathology: liver degeneration and necrosis
[3]; single IP 10 or 100 mg/kg, 24 h
  Histopathology of heart, lung, spleen and brain: indistinguishable from those of control mice
[3]; single IP injection, mice
  Lethal dose: > 100 mg/kg
[4]
  Inorganic phosphate released on incubation with ALP: undetectable levels of inorganic phosphate
[5]
  IC50: 3.3 µM
[6]
  Estimated amount of CLR01 entering the brain per day: ~ 200 fmol
